Measured values: EP1247803A2, “Indolinone compounds suitable for modulation of protein kinases” (Sugen, Inc., priority 1996, dated 1998)

What was measured:
PDGF-R = PDGF-R (Homo sapiens, UniProt P09619); assay: PDGF-R ELISA; format: cell-based
Source text: A PDGF-R ELISA is described in International Patent Publication No. WO 96/40116, published December 19, 1996 by Tang et al.

FLK-1 receptor = target: T1, FLK-1 receptor (Mus musculus, UniProt P35918); assay: FLK-1 ELISA (kinase activity of the FLK-1 receptor in FLK-1/NIH3T3 cells, VEGF stimulated); format: cell-based
T1 construct: expressed in transfected cells; host or cells: NIH3T3 C7#3
Method in brief: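 NIH3T3 C7#3 cells expressing FLK-1 were seeded at 25.000 cells/well, serum-starved overnight in 0.1% FBS, then treated with compound for two hours at 37°C (final DMSO 0.5%) before VEGF stimulation. Receptor was captured on anti-rabbit IgG-coated ELISA plates bearing affinity-purified anti-FLK-1 antiserum.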

MET = MET biochemical kinase assay; parameters: species or system human; concentration or dose not given beside the values
Method in brief: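 Colorimetric signal from an HRP-linked anti-phosphotyrosine antibody with TMB measures phosphate incorporated into immobilised MET. The receptor is pulled from lysates by a polyclonal antibody against its cytoplasmic domain, then reacts in ATP- and metal-containing buffer with test compound.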

T1 sequence (P35918 20-1345): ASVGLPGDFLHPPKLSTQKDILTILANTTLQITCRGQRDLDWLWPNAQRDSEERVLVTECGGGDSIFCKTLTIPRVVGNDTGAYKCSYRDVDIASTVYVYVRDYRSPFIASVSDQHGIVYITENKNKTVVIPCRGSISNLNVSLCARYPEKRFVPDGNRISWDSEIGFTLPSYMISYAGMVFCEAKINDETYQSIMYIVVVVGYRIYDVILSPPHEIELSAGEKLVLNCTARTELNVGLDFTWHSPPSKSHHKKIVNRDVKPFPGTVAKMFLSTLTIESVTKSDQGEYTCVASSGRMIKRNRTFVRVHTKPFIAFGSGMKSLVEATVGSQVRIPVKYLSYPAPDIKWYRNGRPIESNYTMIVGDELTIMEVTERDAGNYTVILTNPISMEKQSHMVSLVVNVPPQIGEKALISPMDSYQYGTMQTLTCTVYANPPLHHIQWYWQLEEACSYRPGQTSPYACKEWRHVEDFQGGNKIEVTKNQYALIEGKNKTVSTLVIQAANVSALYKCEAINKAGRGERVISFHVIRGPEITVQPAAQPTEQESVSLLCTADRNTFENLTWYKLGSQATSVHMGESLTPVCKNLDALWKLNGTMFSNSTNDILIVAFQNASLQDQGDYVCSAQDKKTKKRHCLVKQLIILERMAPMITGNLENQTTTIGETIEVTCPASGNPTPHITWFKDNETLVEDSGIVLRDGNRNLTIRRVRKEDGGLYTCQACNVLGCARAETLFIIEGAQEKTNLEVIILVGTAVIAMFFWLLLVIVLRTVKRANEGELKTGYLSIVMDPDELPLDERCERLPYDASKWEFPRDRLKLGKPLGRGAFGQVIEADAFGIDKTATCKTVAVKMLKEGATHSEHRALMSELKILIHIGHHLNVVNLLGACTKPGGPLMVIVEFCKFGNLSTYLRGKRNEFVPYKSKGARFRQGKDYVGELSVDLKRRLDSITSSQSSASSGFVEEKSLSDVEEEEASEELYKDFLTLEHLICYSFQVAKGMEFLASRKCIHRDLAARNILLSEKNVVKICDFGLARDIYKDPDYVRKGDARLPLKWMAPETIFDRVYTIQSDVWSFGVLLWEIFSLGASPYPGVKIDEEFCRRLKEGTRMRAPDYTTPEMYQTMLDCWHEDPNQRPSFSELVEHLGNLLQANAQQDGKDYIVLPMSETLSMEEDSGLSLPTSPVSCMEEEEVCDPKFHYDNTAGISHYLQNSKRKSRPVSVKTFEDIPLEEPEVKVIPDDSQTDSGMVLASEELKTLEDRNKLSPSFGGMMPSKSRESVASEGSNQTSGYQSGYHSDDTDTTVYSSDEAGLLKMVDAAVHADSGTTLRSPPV
Sequence of PDGF-R (P09619 33-1106, species assumed): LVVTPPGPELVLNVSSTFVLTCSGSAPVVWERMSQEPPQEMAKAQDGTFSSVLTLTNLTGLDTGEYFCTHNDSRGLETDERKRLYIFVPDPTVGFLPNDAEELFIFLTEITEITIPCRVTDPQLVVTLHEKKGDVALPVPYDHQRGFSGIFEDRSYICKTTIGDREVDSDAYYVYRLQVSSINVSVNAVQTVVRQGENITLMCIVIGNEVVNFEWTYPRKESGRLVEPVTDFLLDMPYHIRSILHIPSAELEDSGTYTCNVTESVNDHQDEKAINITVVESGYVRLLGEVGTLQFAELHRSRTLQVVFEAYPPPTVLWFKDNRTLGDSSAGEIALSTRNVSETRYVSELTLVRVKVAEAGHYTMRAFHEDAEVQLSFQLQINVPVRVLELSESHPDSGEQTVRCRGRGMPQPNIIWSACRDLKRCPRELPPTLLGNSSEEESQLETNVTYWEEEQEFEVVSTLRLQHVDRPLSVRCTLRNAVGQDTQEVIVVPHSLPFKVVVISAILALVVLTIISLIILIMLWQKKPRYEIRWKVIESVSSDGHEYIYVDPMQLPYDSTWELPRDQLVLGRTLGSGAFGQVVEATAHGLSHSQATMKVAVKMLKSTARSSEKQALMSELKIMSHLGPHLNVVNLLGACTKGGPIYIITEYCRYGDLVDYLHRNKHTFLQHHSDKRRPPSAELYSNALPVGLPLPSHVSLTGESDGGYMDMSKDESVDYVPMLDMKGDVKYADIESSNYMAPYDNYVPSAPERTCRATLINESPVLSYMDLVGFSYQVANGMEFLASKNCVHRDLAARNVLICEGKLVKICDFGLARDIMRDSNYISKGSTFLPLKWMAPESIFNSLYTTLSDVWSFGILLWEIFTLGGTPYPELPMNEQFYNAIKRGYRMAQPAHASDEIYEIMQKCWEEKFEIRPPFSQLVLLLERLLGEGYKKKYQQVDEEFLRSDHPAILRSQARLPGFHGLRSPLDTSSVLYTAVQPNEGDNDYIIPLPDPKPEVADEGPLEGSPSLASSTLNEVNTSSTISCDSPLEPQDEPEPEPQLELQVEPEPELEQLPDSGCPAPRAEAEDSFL

Compound	PDGF Kinase %Inhibition (PDGF-R) [%]	Fik Kinase %Inhibition (FLK-1 receptor) [%]	Met Kinase % Inhibition (MET) [%]
CC(C)(C)c1cc(C=C2C(=O)Nc3ccc(S(=O)(=O)Nc4ccc(C(F)(F)F)cc4)cc32)cc(Br)c1OCc1ccccc1 [10732/E08]	32.6	13.6	29.4
COc1c(Br)cc(C=C2C(=O)Nc3ccc(CCCl)cc32)cc1C(C)(C)C [10732/G07]	21.4	4.6	23.9
COc1c(Cl)cc(C=C2C(=O)Nc3ccc(S(=O)(=O)Nc4ccc(C(F)(F)F)cc4)cc32)cc1C(C)(C)C [10732/E09]	46.7	15.3	18.1
